Test results: patent publication US20220324770A1, “NITRIFICATION INHIBITORS” (The University of Melbourne, priority 2019, published 2022)

Key:
Terang soil = experiment: Soil microcosm incubation (nitrification of applied ammonium), Terang soil
Experimental: The soil used in this study was collected from four different locations in Victoria, Australia: (i) a wheat cropping soil from Horsham (36° 45′S, 142° 07′ E), (ii) a rotational cropping soil from Dahlen (36° 37′S, 142° 09′ E), (iii) a vegetable growing soil from Clyde (38° 08′S, 145° 20′ E), and (iv) a pasture soil from Terang (38° 15′S, 142° 52′E). In addition, a sugarcane cropping soil from South Johnstone in northern Queensland (17° 34′S, 145° 57′ E) was also studied. The water content of the soil was calculated before commencing each experiment, from samples that were oven-dried to constant weight. The soil's water-filled pore space (WFPS) was in the range 52%-61%, which is within the recommended 50-70% range for microbial activity due to oxygen and nutrient availability (Fichtner, T., et al., Applied Sciences, 2019, 9, 496).
Soil microcosm incubations were carried out in 250 ml polypropylene specimen containers (Sarstedt, Germany), containing 18.24 g oven dry-weight equivalent of soil. Microcosms were re-wetted and pre-incubated at the test temperature for seven days to revive soil microbial activity. Following pre-incubation, the remaining volume to reach the desired water-filled pore spaces (WFPS %) was applied as one of the following treatment solutions; (NH4)2SO4(Control), (NH4)2SO4+DMPP, or (NH4)2SO4+one of Compounds 1-23. Each treatment was applied in triplicate per soil type, so that n=3 at each time point.
Treatment solutions were prepared such that each microcosm received (NH4)2SO4 at a rate of 100 mg N per kg soil, Compounds 1-23 at 10 mol % of applied N, or DMPP at one of 1.5, 3.6 or 10 mol % of applied N, referred to as L-DMPP, M-DMPP or H-DMPP respectively.
The microcosms were incubated for 0, 3, 7, 14, 21 or 28 days, where day 0 samples were extracted following 1-hour incubation post-treatment. Soil microcosms were aerated and moisture levels were replenished based on weight loss every few days throughout the incubation period.
At the end of each incubation period, soil microcosms were destructively sampled by treatment with 2M KCl (100 mL). After shaking for 1 hour, soil-KCl solutions were filtered (Whatman 42) before storing the filtrates at −20° C. until the conclusion of the experiment. All KCl extracts were then analysed by Segmented Flow Analysis (San++, Skalar, Breda, The Netherlands) for the concentration of nitrogen from ammonium (NH4^+—N) and nitrogen from NO3 and NO2 (NOx^−—N) after appropriate dilutions. Results are reported as the mean of three replicates, errors reported are standard errors of the mean.
Nitrification calculations were performed as previously reported (Aulakh, M., et al., Biology and Fertility of Soils 2001, 33, 258-263; Mahmood, T., et al., Soil Research 2017, 55, 715-722) without correction for the initial baseline concentrations of NH4^+—N or NO3^− N in the untreated soil. For each treatment nitrified NH4^+—N (%) was calculated according to eqn. 1:
where [NH4^+—N]0 is the NH4^+—N concentration (in mg N kg^−1 soil) of the soil on day 0 and [NH4^+—N]t is the NH4^+—N concentration (in mg N kg^−1 soil) of the soil at a given time point t.

[1] = temperature of 35° C.; cited from earlier work

## Cc1c[nH]nc1C.O=P(O)(O)O [DMPP, 3,4-dimethylpyrazole phosphate, reference compound]
Terang soil; Terang soil pH 6.5, 25° C., day 3, compounds 10 mol % of applied N, L-DMPP 1.5 mol %, (NH4)2SO4 100 mg N per kg soil
  Nitrified NH4+—N (%) Day 3: 23.5 ± 3.7%
Terang soil; Terang soil pH 6.5, 25° C., day 7, compounds 10 mol %, L-DMPP 1.5 mol %
  Nitrified NH4+—N (%) Day 7: 47.8 ± 2.0%
Terang soil; Terang soil pH 6.5, 25° C., day 14, compounds 10 mol %, L-DMPP 1.5 mol %
  Nitrified NH4+—N (%) Day 14: 89.6 ± 3.1%
Terang soil; Terang soil pH 6.5, 25° C., day 28, compounds 10 mol %, L-DMPP 1.5 mol %
  Nitrified NH4+—N (%) Day 28: 100 ± 2.5%
Terang soil; Terang soil, 25° C.
  retaining NH4+—N in the soil compared with the fertilised control: most effective treatments
[1]
  time DMPP remains effective: only one week
